Source: patent US11707636B2, “Methods and devices for modulating cellular activity using ultrasound” (priority 2008, dated 2023)
“Also recorded” adds a separate entry of the source.

What was measured:
[1] = tested on: Ca^2+ transients (OGB-1 signals) in neurons; assay type: cell-based, mice
[2] = tested on: motor cortex; parameters: species or system mice; settings: mouse, in vivo
[3] = tested on: motor cortex; parameters: species or system mice; settings: mouse, in vivo; remark: listed apart in the source
[4] = tested on: synaptic vesicle exocytosis in hippocampal slice cultures; assay type: cell-based, mice
[5] = tested on: Na^+ transients in CA1 pyramidal neurons; assay type: cell-based, mice

Structure (SMILES): NC1=N[C@H](O)[C@H]2[C@H]3O[C@]4(O)O[C@@H]([C@@H](O)[C@@]2(N1)[C@@H]4O)[C@]3(O)CO [TTX, tetrodotoxin]
- average presynaptic temporal response of OGB-1 to USW-1 [1]: nearly abolishing
- US-evoked cortical activity [2]: blocked
- US-evoked EMG activity / descending corticospinal circuit activity [3]: blocks
- exocytosis (spH response) in response to low intensity ultrasound waveforms [4]: nearly abolishes; also recorded: nearly abolishing
- Na^+ transient response (ΔF/F0 CoroNa Green) to USW-1 [5]: blocked
